Measurements as given in patent US12441743B2, “Spiro aromatic ring compound and use thereof” (Etern Biopharma (Shanghai) Co., Ltd., priority 2018, dated 2025).

What was measured:
[1] = Pharmacokinetics experiment, intragastric single dose; type: in vivo; settings: mouse, plasma, male mice, oral administration dosage 5 mg/Kg; for half-life: read-out: Half-life T1/2 (converted); for Cmax: read-out: Maximum plasma concentration Cmax; for AUC: read-out: Plasma exposure AUC
Procedure: Pharmacokinetics of the compound of the disclosure was determined. The following method was used to determine the pharmacokinetic parameters of the compound of the disclosure. Healthy male adult mice were used in the study. Each group was intragastrically administered with a single dose of 5-100 mg/kg. Fasting lasted from 10 hours before administration to 4 hours after administration. Blood samples were collected at different time points after administration and the compound content in plasma was determined by LC-MS/MS. The relationship between plasma concentration and time was analyzed by professional software (winnonlin), and the pharmacokinetic parameters of the compounds were calculated. According to Table 3, the compounds of the disclosure have excellent pharmacokinetic properties.

MV4-11 cells = assay: MV4-11 cell proliferation inhibition experiment (CellTiter-Glo); type: cell-based; settings: Homo sapiens; MV4-11 cells, 72 h, CellTiter-Glo; read-out: Cell proliferation inhibition activity
Procedure: The number of living cells in the culture was determined by quantitative determination of intracellular ATP using CellTiter-Glo® Luminescent Cell Viability Assay kit.
In the first step, MV4-11 cells were inoculated into 96-well plates with a density of 2500 cells per well and a volume of 100 μL per well. The plates were placed in 37° C., 5% carbon dioxide incubator overnight.
In the second step, cells were treated with compounds. The compounds to be tested were diluted 3 times, and 8 concentration gradients were set up. Each well was added with a certain volume of DMSO or the compound to be tested, and each concentration was tested in 2 replicates, and the final concentration of DMSO was 0.5%. The plates were placed in 37° C., 5% carbon dioxide incubator for 72 h.
In the third step, cell viability of the control groups and the treatment groups was determined using CellTiter-Glo® Luminescent Cell Viability Assay kit (Promega, G7570). Each well was added with 50 uL CellTiter-Glo. The culture was mixed well, and incubated at room temperature for 10 min. Signals were read using EnSpire (Perkin Elmer). Inhibition percentages (%) were calculated by the following formula:
Inhibition percentage (%)=(1−signal value of compound treatment group/signal value of DMSO treatment group)*100.

SHP2 E76A protein = biological target: T1, SHP2 E76A protein (Homo sapiens, UniProt Q06124, E76A); assay: SHP2 enzyme activity inhibition test (DiFMUP substrate, fluorescence); type: biochemical; settings: 50 ng SHP2 E76A, 20 min with compound, then 10 uM DiFMUP 20 min at room temperature
T1 sequence (Q06124 1-593 E76A): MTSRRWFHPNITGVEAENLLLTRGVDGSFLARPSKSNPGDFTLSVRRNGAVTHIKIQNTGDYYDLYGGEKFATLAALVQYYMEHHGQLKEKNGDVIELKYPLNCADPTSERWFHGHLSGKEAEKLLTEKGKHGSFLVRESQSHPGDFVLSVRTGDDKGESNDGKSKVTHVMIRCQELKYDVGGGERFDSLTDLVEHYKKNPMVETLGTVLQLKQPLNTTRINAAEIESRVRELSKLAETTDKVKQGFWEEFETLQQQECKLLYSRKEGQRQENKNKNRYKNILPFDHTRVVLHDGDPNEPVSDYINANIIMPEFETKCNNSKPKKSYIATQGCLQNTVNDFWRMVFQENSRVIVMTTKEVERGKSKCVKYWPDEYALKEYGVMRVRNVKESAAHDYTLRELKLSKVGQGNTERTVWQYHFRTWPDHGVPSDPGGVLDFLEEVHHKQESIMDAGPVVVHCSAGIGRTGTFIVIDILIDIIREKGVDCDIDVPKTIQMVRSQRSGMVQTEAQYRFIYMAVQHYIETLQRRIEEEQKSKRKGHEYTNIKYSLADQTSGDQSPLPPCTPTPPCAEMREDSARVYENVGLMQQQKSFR

| bioavailability [1] [%] | half-life [1] [h] | Cmax [1] [µM] | AUC [1] [µM·h] | IC50 (MV4-11 cells) [nM] | IC50 (SHP2 E76A protein) [nM] | Compound |
| --- | --- | --- | --- | --- | --- | --- |
| 98 | 3 | 7.5 | 43 | 29 | 3 | Nc1nccc(Sc2cnc(N3CCC4(CC3)Cc3ccncc3[C@H]4N)n3cnnc23)c1Cl [Compound 7, (5)-1′-(8-((2-amino-3-chloropyridin-4-yl)thio)-[1,2,4]triazolo[4,3-c]pyrimidin-5-yl)-5,7-dihydrospiro[cyclopenta[c]pyridine-6,4′-piperidine]-7-amine] |
| 34 | 5.4 | 7 | 29 | 7 | 7 | Nc1nccc(Sc2cnc(N3CCC4(CC3)Cc3ccccc3[C@H]4N)n3ccnc23)c1Cl [Compound 4, (S)-1′-(8-((2-amino-3-chloropyridin-4-yl)thio)imidazolo[1,2-c]pyrimidin-5-yl)-1,3-dihydrospirolindene-2,4′-piperidinel-1-amine] |
